The values below come from the supplement of paper PMC11208160.
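Also: IS621 bridge recombinase in Escherichia coli cells against a fixed T5 target plasmid.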

This data set in a line: recombinant UMI read abundance after kanamycin selection (control-corrected) (log10(CPM+1)); higher = more efficient recombination; extreme values may be limits of the assay; sequences stand for … in AGTGCAGAGAAAATCGGCCAGTTTTCTCTGCCTGCAGTCCGCATGCCGTGGGACCCCTTGGGTTCTAACCTGTTGCCTAGATTTATGCAGCGGACTGCCTTTCTCCCAAAGTGATAAACCGG…AGGTTGGTTTCACT; site = the 11-nt donor. The gist of the method: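 Pooled Escherichia coli screen of donor and donor-binding-loop pairs for the IS621 bridge recombinase. Each pair sits with a 12-nt UMI on a plasmid carrying a promoterless kanamycin gene. The library was co-electroporated with a target plasmid encoding a fixed target and T7-inducible recombinase, then plated with IPTG (0.07 mM) plus kanamycin, or unselected, each in two replicates. Recombinant UMIs were PCR-amplified across the donor–target junction and sequenced. Counts became CPM, averaged over replicates, scaled by control-derived factors and reported as log10(CPM+1).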
For the sequence “TGGCTGGCATGGACCGGTTTTCCCGGTAATCCGTATTTGGC (site TGGCGGGCTGC)”, the “recombinant UMI read abundance (log10)” value amounted to 0.
As for “TGGCTGGCATGGACCGGTTTTCCCGGTAATCCGTATTTGGC (site TGGCTGGCTGC)”, the figure is 1.33; as for “TGGGCAACATGGACCGGTTTTCCCGGTAATCCGTATTTGTG (site TGGGCAACTCA)”, 0.0056.
On to “TGGGCACCATGGACCGGTTTTCCCGGTAATCCGTATTTGCA (site AGGGCACCTTG)”, for which the “recombinant UMI read abundance (log10)” value was determined as 0.00499.
For the sequence “TGGGCACCATGGACCGGTTTTCCCGGTAATCCGTATTTGCA (site CGGGCACCTTG)”, the “recombinant UMI read abundance (log10)” value stood at 0.00478.
In the case of “TGGGCACCATGGACCGGTTTTCCCGGTAATCCGTATTTGCA (site GGGGCACCTTG)”, the “recombinant UMI read abundance (log10)” value is 0.
Take “TGGGCACCATGGACCGGTTTTCCCGGTAATCCGTATTTGCA (site TGGGCACCTTG)”: the “recombinant UMI read abundance (log10)” value was found to be 0.00258.
Take “TGGGCGGCATGGACCGGTTTTCCCGGTAATCCGTATTTGAT (site TGGGCGGCTAT)”: the “recombinant UMI read abundance (log10)” value is 1.11.
As for “TGGTAAGCATGGACCGGTTTTCCCGGTAATCCGTATTTGGC (site TGGTAAGCTGC)”, the figure is 2.86; as for “TGGTAATCATGGACCGGTTTTCCCGGTAATCCGTATTTGTG (site TGGTAATCTCA)”, 1.65; as for “TGGTCACCATGGACCGGTTTTCCCGGTAATCCGTATTTGTC (site GTACTCACTCC)”, 0.00879.
Consider “TGGTGACCATGGACCGGTTTTCCCGGTAATCCGTATTTGTC (site TGGTGACCTGA)”, for which the “recombinant UMI read abundance (log10)” value was determined as 0.
Regarding “TGTAAACCATGGACCGGTTTTCCCGGTAATCCGTATTTGAC (site TGTAAACCTGT)”, the “recombinant UMI read abundance (log10)” value was determined as 0.
“TGTAAACCATGGACCGGTTTTCCCGGTAATCCGTATTTGAC (site TGTACACCTGT)”: the “recombinant UMI read abundance (log10)” value was determined as 0.
Consider “TGTAAACCATGGACCGGTTTTCCCGGTAATCCGTATTTGAC (site TGTAGACCTGT)”, for which the “recombinant UMI read abundance (log10)” value is 0.
As for “TGTAAACCATGGACCGGTTTTCCCGGTAATCCGTATTTGAC (site TGTATACCTGT)”, the “recombinant UMI read abundance (log10)” value is 0.
As for “TGTAAGACATGGACCGGTTTTCCCGGTAATCCGTATTTGGC (site TGTAAGACTGC)”, the figure is 0; as for “TGTACAACATGGACCGGTTTTCCCGGTAATCCGTATTTGAG (site TGTACAACTCT)”, 0.0145.
As to “TGTACACCATGGACCGGTTTTCCCGGTAATCCGTATTTGAA (site TGTACACCTAT)”, the “recombinant UMI read abundance (log10)” value is 0.0146.
For the sequence “TGTACACCATGGACCGGTTTTCCCGGTAATCCGTATTTGAA (site TGTACACCTCT)”, the “recombinant UMI read abundance (log10)” value came to 0.00905.
To “TGTACACCATGGACCGGTTTTCCCGGTAATCCGTATTTGAA (site TGTACACCTGT)” belongs 0.
As for “TGTACACCATGGACCGGTTTTCCCGGTAATCCGTATTTGAA (site TGTACACCTTT)”, the “recombinant UMI read abundance (log10)” value was 0.0198.
With “TGTACACCATGGACCGGTTTTCCCGGTAATCCGTATTTGAT (site TGTACACCTAT)”, the “recombinant UMI read abundance (log10)” value was found to be 0.00557.
Regarding “TGTACACCATGGACCGGTTTTCCCGGTAATCCGTATTTGAT (site TGTACACCTCT)”, the “recombinant UMI read abundance (log10)” value was 0.
Turning to “TGTACACCATGGACCGGTTTTCCCGGTAATCCGTATTTGAT (site TGTACACCTGT)”, the “recombinant UMI read abundance (log10)” value amounted to 0.
“TGTACACCATGGACCGGTTTTCCCGGTAATCCGTATTTGAT (site TGTACACCTTT)”: the “recombinant UMI read abundance (log10)” value came out at 0.00971.
Regarding “TGTACCCCATGGACCGGTTTTCCCGGTAATCCGTATTTGAC (site TGTACACCTGT)”, the “recombinant UMI read abundance (log10)” value was 0.
As for “TGTACCCCATGGACCGGTTTTCCCGGTAATCCGTATTTGAC (site TGTACCCCTGT)”, the figure is 1.52.
Turning to “TGTACCCCATGGACCGGTTTTCCCGGTAATCCGTATTTGAC (site TGTACGCCTGT)”, the “recombinant UMI read abundance (log10)” value amounted to 0.
Turning to “TGTACCCCATGGACCGGTTTTCCCGGTAATCCGTATTTGAC (site TGTACTCCTGT)”, the “recombinant UMI read abundance (log10)” value was 0.00417.
“TGTACTCCATGGACCGGTTTTCCCGGTAATCCGTATTTGAC (site TGTACACCTGT)”: the “recombinant UMI read abundance (log10)” value turned out to be 0.
“TGTACTCCATGGACCGGTTTTCCCGGTAATCCGTATTTGAC (site TGTACCCCTGT)”: the “recombinant UMI read abundance (log10)” value stood at 0.817.
“TGTACTCCATGGACCGGTTTTCCCGGTAATCCGTATTTGAC (site TGTACGCCTGT)”: the “recombinant UMI read abundance (log10)” value stood at 0.
As for “TGTACTCCATGGACCGGTTTTCCCGGTAATCCGTATTTGAC (site TGTACTCCTGT)”, the figure is 0; as for “TGTAGTGCATGGACCGGTTTTCCCGGTAATCCGTATTTGCG (site TGTAGTGCTCG)”, 0.963.
To “TGTCCCCCATGGACCGGTTTTCCCGGTAATCCGTATTTGTA (site TGTACCCCTTA)” belongs 0.013; to “TGTCCCCCATGGACCGGTTTTCCCGGTAATCCGTATTTGTA (site TGTCCCCCTTA)”, 0.0699; to “TGTCCCCCATGGACCGGTTTTCCCGGTAATCCGTATTTGTA (site TGTGCCCCTTA)”, 0.0174.
For “TGTCCCCCATGGACCGGTTTTCCCGGTAATCCGTATTTGTA (site TGTTCCCCTTA)”, the “recombinant UMI read abundance (log10)” value is 0.0128.
“TGTCTAACATGGACCGGTTTTCCCGGTAATCCGTATTTGGC (site TGTCTAACTGC)”: the “recombinant UMI read abundance (log10)” value is 0.011.
Take “TGTCTATCATGGACCGGTTTTCCCGGTAATCCGTATTTGAC (site TGTCTATCTGT)”: the “recombinant UMI read abundance (log10)” value is 0.
In the case of “TGTGATACATGGACCGGTTTTCCCGGTAATCCGTATTTGCC (site TGTGATACTGG)”, the “recombinant UMI read abundance (log10)” value was determined as 0.
On to “TGTGATTCATGGACCGGTTTTCCCGGTAATCCGTATTTGTG (site TGTGATTCTCA)”, for which the “recombinant UMI read abundance (log10)” value was found to be 0.304.
For the sequence “TGTGCAGCATGGACCGGTTTTCCCGGTAATCCGTATTTGGT (site TGTGCAGCTAC)”, the “recombinant UMI read abundance (log10)” value came to 0.0104.
As for “TGTGCGTCATGGACCGGTTTTCCCGGTAATCCGTATTTGGT (site TGTGCGTCTAC)”, the figure is 0.348; as for “TGTGGAGCATGGACCGGTTTTCCCGGTAATCCGTATTTGGC (site TGTGGAGCTGC)”, 1.6.
As to “TGTGGTACATGGACCGGTTTTCCCGGTAATCCGTATTTGGC (site TGTGGTACTGC)”, the “recombinant UMI read abundance (log10)” value stood at 0.698.
Turning to “TGTGTAACATGGACCGGTTTTCCCGGTAATCCGTATTTGGG (site TGTGTAACTCC)”, the “recombinant UMI read abundance (log10)” value amounted to 0.0344.
To “TGTGTATCATGGACCGGTTTTCCCGGTAATCCGTATTTGAT (site TGTGTATCTAT)” belongs 0.398; to “TGTTATACATGGACCGGTTTTCCCGGTAATCCGTATTTGCA (site TGTTATACTTG)”, 1.64; to “TGTTCAGCATGGACCGGTTTTCCCGGTAATCCGTATTTGTA (site TGTTCAGCTTA)”, 0.141.
Turning to “TGTTCCACATGGACCGGTTTTCCCGGTAATCCGTATTTGTA (site TGTTCCACTTA)”, the “recombinant UMI read abundance (log10)” value stood at 0.225.
